From publication PMC3380172 (Journal of the American Chemical Society, 2012)
Like-named read-outs stand apart in the source and are kept apart here.

Key:
I172A mutant TbbTIM [1] = target: T1, I172A mutant TbbTIM (Trypanosoma brucei brucei, UniProt P04789, I172A); test: TIM-catalyzed isomerization of DHAP and arsenate inhibition; type: biochemical; settings: 30 mM TEA, pH 7.5, 25 °C, I = 0.1 (NaCl)
I172V mutant TbbTIM [2] = target: T2, I172V mutant TbbTIM (Trypanosoma brucei brucei, UniProt P04789, I172V); test: as above; type: biochemical; settings: 30 mM TEA, pH 7.5, 25 °C, I = 0.1 (NaCl)
L232A mutant TbbTIM [3] = target: T3, L232A mutant TbbTIM (Trypanosoma brucei brucei, UniProt P04789, L232A); type: biochemical; settings: for Fractional Product Yield fE: fraction of the three TIM-catalyzed products, 5 mM GAP, 3.4 nM L232A, D2O
I172A mutant TbbTIM [4] = target: T1, I172A mutant TbbTIM; type: biochemical; settings: for Fractional Product Yield fE: fraction of the three TIM-catalyzed products, 5 mM GAP, 65 nM I172A, D2O
wildtype TbbTIM [5] = settings: cited from earlier work
L232A mutant TbbTIM [6] = target: T3, L232A mutant TbbTIM; settings: 30 mM TEA, pH 7.5, 25 °C, I = 0.1 (NaCl), cited from earlier work
WT chicken TIM [7] = settings: cited from earlier work
E165D chicken TIM [8] = settings: cited from earlier work
E165D/S96P chicken TIM [9] = settings: cited from earlier work
I172A mutant TbbTIM [10] = target: T1, I172A mutant TbbTIM; test: TIM-catalyzed isomerization of GAP; type: biochemical; settings: 30 mM TEA, pH 7.5, 25 °C, I = 0.1 (NaCl)
I172V mutant TbbTIM [11] = target: T2, I172V mutant TbbTIM; test: TIM-catalyzed isomerization of GAP; type: biochemical; settings: 30 mM TEA, pH 7.5, 25 °C, I = 0.1 (NaCl)
wildtype TbbTIM [12] = type: biochemical, Trypanosoma brucei brucei; settings: reaction of GAP in D2O, pD 7.9, 25 °C; from product yields
wildtype TbbTIM [13] = settings: 30 mM TEA, pH 7.5, 25 °C, I = 0.1 (NaCl), cited from earlier work
L232A mutant TbbTIM [14] = target: T3, L232A mutant TbbTIM; settings: 30 mM TEA, pH 7.5, 25 °C, I = 0.1 (NaCl), cited from earlier work; remark: listed apart in the source
WT chicken TIM [15] = settings: cited from earlier work; remark: listed apart in the source
E165D chicken TIM [16] = settings: cited from earlier work; remark: listed apart in the source
E165D/S96P chicken TIM [17] = settings: cited from earlier work; remark: listed apart in the source
I172V mutant TbbTIM [18] = target: T2, I172V mutant TbbTIM; test: Reaction of [1-13C]-GA in D2O with and without phosphite dianion, 1H NMR; type: biochemical; settings: for Average product yield (mole fraction), phosphite dianion-activated reaction / Fractional yield from reaction at the enzyme active site: 20 mM [1-13C]-GA, D2O; for Average product yield (mole fraction), phosphite dianion-activated reaction: pD 7.0, I = 0.1, 25 °C, average over [HPO3^2-]; for Fractional yield from reaction at the enzyme active site: value in parenthesis, [HPO3^2-] 0 mM, pD 7.0, 25 °C
I172A mutant TbbTIM [19] = target: T1, I172A mutant TbbTIM; test: as above; type: biochemical; settings: for Average product yield (mole fraction), phosphite dianion-activated reaction: 20 mM [1-13C]-GA, D2O, pD 7.0, I = 0.1, 25 °C, average over [HPO3^2-]
L232A mutant TbbTIM [20] = target: T3, L232A mutant TbbTIM; test: as above; type: biochemical; settings: for Average product yield (mole fraction), phosphite dianion-activated reaction: 20 mM [1-13C]-GA, D2O, pD 7.0, I = 0.1, 25 °C, average over [HPO3^2-]
[21] = isomerization of GAP in D2O with intramolecular transfer of hydrogen
[22] = reaction of GAP in D2O, pD 7.9, 25 °C, from product yields
[23] = unactivated reaction of [1-13C]-GA in D2O (no HPO3^2-)
[24] = isomerization of [1-13C]-GA in D2O
[25] = read-out: Ki (arsenate), inhibition of DHAP isomerization

## O=C(CO)COP(=O)(O)O [DHAP, dihydroxyacetone phosphate]
I172A mutant TbbTIM [1]
  kcat (DHAP): 17 s⁻¹
I172A mutant TbbTIM [1]; read-out: Km (DHAP)
  Km: 3700 µM
I172V mutant TbbTIM [2]
  kcat (DHAP): 65 s⁻¹
I172V mutant TbbTIM [2]; read-out: Km (DHAP)
  Km: 200 µM
L232A mutant TbbTIM [3]; pD 7.9, 25 °C
  Fractional Product Yield fE: 0.041
L232A mutant TbbTIM [3]; [21]
  yield of product: 4%
I172A mutant TbbTIM [4]; pD 7.9, 25 °C
  Fractional Product Yield fE: 0.13
I172A mutant TbbTIM [4]; [21]
  yield of product: 13%
Wildtype TbbTIM [5]; 30 mM TEA, pH 7.5, 25 °C, I = 0.1 (NaCl)
  kcat (DHAP): 300 s⁻¹
Wildtype TbbTIM [5]; read-out: Km (DHAP), 30 mM TEA, pH 7.5, 25 °C, I = 0.1 (NaCl)
  Km: 700 µM
L232A mutant TbbTIM [6]
  kcat (DHAP): 4.7 s⁻¹
L232A mutant TbbTIM [6]; read-out: Km (DHAP)
  Km: 77 µM
WT chicken TIM [7]
  kcat (DHAP): 600 s⁻¹
WT chicken TIM [7]; read-out: Km (DHAP)
  Km: 650 µM
E165D chicken TIM [8]
  kcat (DHAP): 4.1 s⁻¹
E165D chicken TIM [8]; read-out: Km (DHAP)
  Km: 1200 µM
E165D/S96P chicken TIM [9]
  kcat (DHAP): 3.4 s⁻¹
E165D/S96P chicken TIM [9]; read-out: Km (DHAP)
  Km: 53 µM

## O=C[C@H](O)COP(=O)(O)O [GAP, R-glyceraldehyde 3-phosphate]
I172A mutant TbbTIM [10]
  kcat (GAP): 12 s⁻¹
I172A mutant TbbTIM [10]; read-out: Km (GAP)
  Km: 150 µM
I172V mutant TbbTIM [11]
  kcat (GAP): 225 s⁻¹
I172V mutant TbbTIM [11]; read-out: Km (GAP)
  Km: 58 µM
L232A mutant TbbTIM [3]; [22]
  Rate Constant Ratio (kC1)D/(kC2)D: 8.8
  Rate Constant Ratio kex/(kC1)H: 23
I172A mutant TbbTIM [4]; [22]
  Rate Constant Ratio (kC1)D/(kC2)D: 0.74
  Rate Constant Ratio kex/(kC1)H: 6.7
Wildtype TbbTIM [12]
  Rate Constant Ratio (kC1)D/(kC2)D: 1.7
  Rate Constant Ratio kex/(kC1)H: 1.5
Wildtype TbbTIM [13]
  kcat (GAP): 2100 s⁻¹
Wildtype TbbTIM [13]; read-out: Km (GAP)
  Km: 250 µM
L232A mutant TbbTIM [14]
  kcat (GAP): 220 s⁻¹
L232A mutant TbbTIM [14]; read-out: Km (GAP)
  Km: 140 µM
WT chicken TIM [15]
  kcat (GAP): 8300 s⁻¹
WT chicken TIM [15]; read-out: Km (GAP)
  Km: 420 µM
E165D chicken TIM [16]
  kcat (GAP): 4.2 s⁻¹
E165D chicken TIM [16]; read-out: Km (GAP)
  Km: 78 µM
E165D/S96P chicken TIM [17]
  kcat (GAP): 68 s⁻¹
E165D/S96P chicken TIM [17]; read-out: Km (GAP)
  Km: 66 µM

## [2H]C([2H])(O)[13CH]=O [[1-^13C, 2,2-di-^2H]-GA]
I172V mutant TbbTIM [18]; reaction of [1-13C]-GA in D2O in the absence of HPO3^2-
  yield of product: 25%
I172A mutant TbbTIM [19]; [23]
  yield of product: 38%

## [2H]C(O)[13CH]=O (stereo not drawn) [[1-^13C, 2-^2H]-GA]
L232A mutant TbbTIM [20]
  Average product yield (mole fraction), phosphite dianion-activated reaction: 0.51 ± 0.02
I172V mutant TbbTIM [18]
  Average product yield (mole fraction), phosphite dianion-activated reaction: 0.24 ± 0.02
  Fractional yield from reaction at the enzyme active site: 0.55
I172A mutant TbbTIM [19]
  Average product yield (mole fraction), phosphite dianion-activated reaction: 0.30 ± 0.02
I172A mutant TbbTIM [19]; [23]
  yield of product: 15%

## [2H][13CH](O)C=O (stereo not drawn) [[2-^13C, 2-^2H]-GA]
L232A mutant TbbTIM [20]
  Average product yield (mole fraction), phosphite dianion-activated reaction: 0.48 ± 0.02
I172V mutant TbbTIM [18]
  Average product yield (mole fraction), phosphite dianion-activated reaction: 0.63 ± 0.01
  Fractional yield from reaction at the enzyme active site: 0.40
I172A mutant TbbTIM [19]
  Average product yield (mole fraction), phosphite dianion-activated reaction: 0.25 ± 0.02

## O=C[13CH2]O [[2-^13C]-GA]
L232A mutant TbbTIM [20]
  Average product yield (mole fraction), phosphite dianion-activated reaction: 0.01 ± 0.001
L232A mutant TbbTIM [20]; [24]
  yield of product: 1%
I172V mutant TbbTIM [18]
  Average product yield (mole fraction), phosphite dianion-activated reaction: 0.13 ± 0.01
  Fractional yield from reaction at the enzyme active site: 0.04
I172A mutant TbbTIM [19]
  Average product yield (mole fraction), phosphite dianion-activated reaction: 0.02 ± 0.001
I172A mutant TbbTIM [19]; [24]
  yield of product: 2%

## O=[As](O)(O)O [arsenate, arsenate dianion, reference compound]
Wildtype TbbTIM [5]; read-out: Ki (competitive inhibitor), arsenate dianion, competitive
  Ki: 4.6 mM
WT chicken TIM [7]; [25]
  Ki: 11 mM
E165D chicken TIM [8]; [25]
  Ki: 12 mM
E165D/S96P chicken TIM [9]; [25]
  Ki: 2.1 mM

## [2H]C(O)C(=O)COP(=O)(O)O (stereo not drawn) [d-DHAP]
L232A mutant TbbTIM [3]; pD 7.9, 25 °C
  Fractional Product Yield fE: 0.86
I172A mutant TbbTIM [4]; pD 7.9, 25 °C
  Fractional Product Yield fE: 0.37

## O=C[C@H](O)COP(=O)(O)O [d-GAP]
L232A mutant TbbTIM [3]; pD 7.9, 25 °C
  Fractional Product Yield fE: 0.098
I172A mutant TbbTIM [4]; pD 7.9, 25 °C
  Fractional Product Yield fE: 0.50
